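Dose response: 5 concentrations. Exposure: 48 h. Format: 96-well plates. Endpoint: linear interpolation; highest concentration if not reached. TGI denotes the concentration required for complete inhibition of growth.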
Legend:
Assay in all cases: NCI tumour cell line growth inhibition, 48 h
OVCAR-8 ovarian = tested on: OVCAR-8 ovarian
HCC-2998 colon = tested on: HCC-2998 colon
HCT-116 colon = tested on: HCT-116 colon
NCI-H226 lung = tested on: NCI-H226 lung
MDA-MB-435 = tested on: MDA-MB-435
NCI-H522 lung = tested on: NCI-H522 lung
PC-3 prostate = tested on: PC-3 prostate
T-47D breast = tested on: T-47D breast
OVCAR-5 ovarian = tested on: OVCAR-5 ovarian
SF-268 CNS = tested on: SF-268 CNS
SK-MEL-2 melanoma = tested on: SK-MEL-2 melanoma
HL-60(TB) leukemia = tested on: HL-60(TB) leukemia
UACC-257 melanoma = tested on: UACC-257 melanoma
A549 NSCLC = tested on: A549 NSCLC
SF-295 CNS = tested on: SF-295 CNS
TK-10 renal = tested on: TK-10 renal
UO-31 renal = tested on: UO-31 renal
RXF 393 renal = tested on: RXF 393 renal
OVCAR-4 ovarian = tested on: OVCAR-4 ovarian
CCRF-CEM leukemia = tested on: CCRF-CEM leukemia
SK-OV-3 ovarian = tested on: SK-OV-3 ovarian
SN12C renal = tested on: SN12C renal
SF-539 CNS = tested on: SF-539 CNS
MOLT-4 leukemia = tested on: MOLT-4 leukemia
M14 melanoma = tested on: M14 melanoma
RPMI-8226 leukemia = tested on: RPMI-8226 leukemia
NCI-H460 lung = tested on: NCI-H460 lung
A498 renal = tested on: A498 renal
NCI/ADR-RES ovarian = tested on: NCI/ADR-RES ovarian
CAKI-1 renal = tested on: CAKI-1 renal
SK-MEL-5 melanoma = tested on: SK-MEL-5 melanoma
HCT-15 colon = tested on: HCT-15 colon
EKVX NSCLC = tested on: EKVX NSCLC
SK-MEL-28 melanoma = tested on: SK-MEL-28 melanoma
UACC-62 melanoma = tested on: UACC-62 melanoma
NCI-H23 lung = tested on: NCI-H23 lung
SNB-19 CNS = tested on: SNB-19 CNS
HT29 colon = tested on: HT29 colon
SNB-75 CNS = tested on: SNB-75 CNS
HS 578T breast = tested on: HS 578T breast
K-562 leukemia = tested on: K-562 leukemia
DU-145 prostate = tested on: DU-145 prostate
HOP-92 NSCLC = tested on: HOP-92 NSCLC
IGROV1 ovarian = tested on: IGROV1 ovarian
COLO 205 colon = tested on: COLO 205 colon
SW-620 colon = tested on: SW-620 colon
OVCAR-3 ovarian = tested on: OVCAR-3 ovarian
HOP-62 NSCLC = tested on: HOP-62 NSCLC
786-0 renal = tested on: 786-0 renal
MDA-MB-231 breast = tested on: MDA-MB-231 breast
ACHN renal = tested on: ACHN renal
U251 CNS = tested on: U251 CNS
BT-549 breast = tested on: BT-549 breast
KM12 colon = tested on: KM12 colon
LOX IMVI melanoma = tested on: LOX IMVI melanoma
MALME-3M melanoma = tested on: MALME-3M melanoma

NNC(=O)CC(=O)Nc1ccc(S(=O)(=O)c2ccc(NC(=O)CC(=O)NN)cc2)cc1
TGI (OVCAR-8 ovarian): > 100 µM | TGI (HCC-2998 colon): > 100 µM | TGI (HCT-116 colon): > 100 µM | TGI (NCI-H226 lung): > 100 µM | TGI (MDA-MB-435): > 100 µM | TGI (NCI-H522 lung): > 100 µM | TGI (PC-3 prostate): > 100 µM | TGI (T-47D breast): > 100 µM | TGI (OVCAR-5 ovarian): > 100 µM | TGI (SF-268 CNS): > 100 µM | TGI (SK-MEL-2 melanoma): > 100 µM | TGI (HL-60(TB) leukemia): > 100 µM | TGI (UACC-257 melanoma): > 100 µM | TGI (A549 NSCLC): > 100 µM | TGI (SF-295 CNS): > 100 µM | TGI (TK-10 renal): > 100 µM | TGI (UO-31 renal): > 100 µM | TGI (RXF 393 renal): > 100 µM | TGI (OVCAR-4 ovarian): > 100 µM | TGI (CCRF-CEM leukemia): > 100 µM | TGI (SK-OV-3 ovarian): > 100 µM | TGI (SN12C renal): > 100 µM | TGI (SF-539 CNS): > 100 µM | TGI (MOLT-4 leukemia): > 100 µM | TGI (M14 melanoma): > 100 µM | TGI (RPMI-8226 leukemia): > 100 µM | TGI (NCI-H460 lung): > 100 µM | TGI (A498 renal): > 100 µM | TGI (NCI/ADR-RES ovarian): > 100 µM | TGI (CAKI-1 renal): > 100 µM | TGI (SK-MEL-5 melanoma): > 100 µM | TGI (HCT-15 colon): > 100 µM | TGI (EKVX NSCLC): > 100 µM | TGI (SK-MEL-28 melanoma): > 100 µM | TGI (UACC-62 melanoma): > 100 µM | TGI (NCI-H23 lung): > 100 µM | TGI (SNB-19 CNS): > 100 µM | TGI (HT29 colon): > 100 µM | TGI (SNB-75 CNS): > 100 µM | TGI (HS 578T breast): > 100 µM | TGI (K-562 leukemia): > 100 µM | TGI (DU-145 prostate): > 100 µM | TGI (HOP-92 NSCLC): > 100 µM | TGI (IGROV1 ovarian): > 100 µM | TGI (COLO 205 colon): > 100 µM | TGI (SW-620 colon): > 100 µM | TGI (OVCAR-3 ovarian): > 100 µM | TGI (HOP-62 NSCLC): > 100 µM | TGI (786-0 renal): > 100 µM | TGI (MDA-MB-231 breast): > 100 µM | TGI (ACHN renal): > 100 µM | TGI (U251 CNS): > 100 µM | TGI (BT-549 breast): > 100 µM | TGI (KM12 colon): > 100 µM

CC(ON1[C@](C)(c2ccccc2)CC[C@@]1(C)c1ccccc1)c1ccccc1 (some centres not stated)
TGI (OVCAR-8 ovarian): > 100 µM | TGI (HCC-2998 colon): 52.6 µM | TGI (HCT-116 colon): > 100 µM | TGI (NCI-H226 lung): > 100 µM | TGI (MDA-MB-435): > 100 µM | TGI (NCI-H522 lung): 50.3 µM | TGI (PC-3 prostate): > 100 µM | TGI (T-47D breast): 87.3 µM | TGI (OVCAR-5 ovarian): > 100 µM | TGI (SF-268 CNS): > 100 µM | TGI (SK-MEL-2 melanoma): 50.5 µM | TGI (HL-60(TB) leukemia): 61.5 µM | TGI (LOX IMVI melanoma): > 100 µM | TGI (UACC-257 melanoma): > 100 µM | TGI (A549 NSCLC): > 100 µM | TGI (SF-295 CNS): > 100 µM | TGI (TK-10 renal): > 100 µM | TGI (UO-31 renal): > 100 µM | TGI (RXF 393 renal): 46 µM | TGI (OVCAR-4 ovarian): > 100 µM | TGI (CCRF-CEM leukemia): 52.5 µM | TGI (SK-OV-3 ovarian): > 100 µM | TGI (SN12C renal): > 100 µM | TGI (SF-539 CNS): > 100 µM | TGI (MOLT-4 leukemia): 46.1 µM | TGI (M14 melanoma): > 100 µM | TGI (RPMI-8226 leukemia): 58.2 µM | TGI (NCI-H460 lung): > 100 µM | TGI (NCI/ADR-RES ovarian): > 100 µM | TGI (CAKI-1 renal): > 100 µM | TGI (SK-MEL-5 melanoma): > 100 µM | TGI (MALME-3M melanoma): > 100 µM | TGI (HCT-15 colon): > 100 µM | TGI (EKVX NSCLC): 77.9 µM | TGI (SK-MEL-28 melanoma): > 100 µM | TGI (NCI-H23 lung): > 100 µM | TGI (SNB-19 CNS): 93 µM | TGI (HT29 colon): > 100 µM | TGI (SNB-75 CNS): 54.6 µM | TGI (HS 578T breast): > 100 µM | TGI (K-562 leukemia): > 100 µM | TGI (DU-145 prostate): > 100 µM | TGI (HOP-92 NSCLC): > 100 µM | TGI (IGROV1 ovarian): > 100 µM | TGI (COLO 205 colon): > 100 µM | TGI (SW-620 colon): > 100 µM | TGI (OVCAR-3 ovarian): > 100 µM | TGI (HOP-62 NSCLC): > 100 µM | TGI (786-0 renal): > 100 µM | TGI (MDA-MB-231 breast): > 100 µM | TGI (U251 CNS): > 100 µM | TGI (BT-549 breast): 42.2 µM | TGI (KM12 colon): > 100 µM

— PubChem BioAssay (NCI)
